This assay deals with T1, Dimer of Gag-Pol polyprotein [489-587] (Human immunodeficiency virus 1, UniProt P12497).
T1 construct: 489-587
Description: Protease Inhibition Assay. To be noted: pH 6; 37 °C. As to the method:
Sensitivity of HIV-1 protease activity to protease inhibitors was determined by a peptide substrate cleavage assay. Substrates and cleavage fragments were separated by reverse-phase HPLC, detected by absorbance at 215 nm, and quantified by comparison with a synthetic product standard.
`CCc1c(O)cccc1C(=O)N[C@@H](Cc1ccccc1)[C@H](O)C(=O)N1CSC(C)(C)[C@H]1C(=O)NCc1ccccc1C` [(R)-N-(2-Methylbenzyl)-3-[(2S,3S)-3-(2-ethyl-3-hydroxybenzoyl)amino-2-hydroxy-4-phenylbutanoyl]-5,5-methyl-1,3-thiazolidine-4-carboxamide] yielded a Ki of 0.16 nM. This lies in the sub-nanomolar range.
`CSC[C@H](NC(=O)COc1cccc2cnccc12)C(=O)N[C@@H](Cc1ccccc1)[C@H](O)C(=O)N1CSC(C)(C)[C@H]1C(=O)NC(C)(C)C` yielded a Ki of 0.088 nM.
In turn, `CSC[C@H](NC(=O)COc1cccc2cnccc12)C(=O)N[C@@H](Cc1ccccc1)[C@H](O)C(=O)N1CSC[C@H]1C(=O)NC(C)(C)C` [Kynostatin 272] yielded a Ki of 0.74 nM. This Ki lies about 8.4-fold higher than the previous one.

These data come from BindingDB's records for doi:10.1021/jm980637h (Japan Energy, 1999).
